# Assays:
# Type in all cases: physicochemical
# [1] = Stability tests on crystal forms of acid addition salts: high-temperature test and accelerated test, 4 weeks; conditions: for stability under accelerated conditions: 40° C.±2° C./75% RH±5% RH; for stability under high temperature conditions: 60±2° C.
# [2] = Dynamic vapor sorption (DVS) hygroscopicity
# Experimental: DVS curves are acquired on DVS Intrinsic from SMS (Surface Measurement Systems). • Testing temperature: 25° C. • Sample amount: 10-20 mg • dm/dt: 0.002%/min; • RH range: 0% RH-95% RH-0% RH • RH gradient: 10%
# [3] = Competitive experiments of crystal forms I and II by adding crystal seeds (different water activities); conditions: room temperature, 3 days
# Experimental: To confirm stability of the crystal forms at room temperature, the following competitive experiments were conducted for the crystal forms I and II:
# The suspensions were stirred for 24 hours at room temperature, and all systems had solid residues. All systems were centrifuged and the supernatants were taken. […] The resulting suspensions were sonicated for 1 minute, stirred for 3 days at room temperature, and sampled to detect the crystal form.
# [4] = Stability studies under relatively harsh conditions (40° C., 40° C./75% RH, 60° C., 60° C./75% RH) on crystal forms I and II
# [5] = Approximate solubility test of the free base of nepicastat; conditions: for solubility: thermodynamic from solid, approximate solubility
# Experimental: In order to select a suitable method for salt form screening, an approximate solubility test was conducted on the compound. The test method was as follows: about 4 mg of the free base of nepicastat was weighed, an appropriate volume of a solvent was added gradually thereto and shaken to observe whether the free base was dissolved, and the volumes of the solvent were recorded, including the volume that enabled complete dissolution and the previous volume of the solvent that was not able to completely dissolve the free base. For poor solubility, the total amount of the solvent added was no more than 4 mL. The approximate solubility thereof was calculated.
# [6] = Approximate solubility test on crystal forms of hydrochloride salt of nepicastat at room temperature; conditions: purified water
# [7] = Approximate solubility tests on crystal forms of acid addition salts of nepicastat in water (room temperature)
compound,measurement,setting,value
"NCc1c[nH]c(=S)n1C1CCc2c(F)cc(F)cc2C1.O=C(O)CC(O)(CC(=O)O)C(=O)O (stereo not shown) [crystal form I of citrate salt, citrate salt of nepicastat]",stability under accelerated conditions,[1],stable
same,stability under high temperature conditions,[1],the impurities increased
"NCc1c[nH]c(=S)n1[C@H]1CCc2c(F)cc(F)cc2C1.O=C(O)/C=C/C(=O)O [crystal form I of fumarate salt, fumarate salt of nepicastat]",stability under accelerated conditions,[1],stable
same,stability under high temperature conditions,[1],the impurities increased
"CS(=O)(=O)O.NCc1c[nH]c(=S)n1[C@H]1CCc2c(F)cc(F)cc2C1 [crystal form I of methanesulfonate salt, methanesulfonate salt of nepicastat]",stability under accelerated conditions,[1],stable
same,stability under high temperature conditions,[1],stable
"NCc1c[nH]c(=S)n1[C@H]1CCc2c(F)cc(F)cc2C1.O=P(O)(O)O [crystal form I of phosphate salt, phosphate salt of nepicastat]",stability under accelerated conditions,[1],stable
same,stability under high temperature conditions,[1],the impurities slightly increased
"Cl.NCc1c[nH]c(=S)n1[C@H]1CCc2c(F)cc(F)cc2C1 [crystal form II of hydrochloride salt, hydrochloride salt of nepicastat]",hygroscopicity of the sample,"[2]; DVS, 0% RH to 80% RH",slight hygroscopicity
same,weight gain by hygroscopicity,"[2]; DVS, from 0% RH to 80% RH, 25° C.",about 0.453%
same,crystal form before and after the DVS test,[2]; XRPD before and after DVS,remained unchanged
same,stability in competitive experiment,[3]; ethanol-water mixed solutions with lower water activity (0.291-0.750),could exist stably
same,stability in competitive experiment,[3]; purified water,not as good as that of the crystal form I
same,crystal form stability (XRPD pattern),[4]; 40° C.,converted into the crystal form III
same,crystal form stability (XRPD pattern),"[4]; 40° C./75% RH, 15 days",the crystal form did not change
same,crystal form stability (XRPD pattern),"[4]; 60° C., 15 days",converted into the crystal form III
same,crystal form stability (XRPD pattern),"[4]; 60° C./75% RH, 15 days",the crystal form did not change
"NCc1c[nH]c(=S)n1[C@H]1CCc2c(F)cc(F)cc2C1.NCc1c[nH]c(=S)n1[C@H]1CCc2c(F)cc(F)cc2C1.O=S(=O)(O)O [crystal form II of sulfate salt (1:0.5), sulfate salt of nepicastat]",stability under accelerated conditions,[1],stable
same,stability under high temperature conditions,[1],the impurities increased
"NCc1c[nH]c(=S)n1[C@H]1CCc2c(F)cc(F)cc2C1.O=S(=O)(O)O [crystal form III of sulfate salt (1:1), bisulfate salt of nepicastat]",stability under accelerated conditions,[1],stable
same,stability under high temperature conditions,[1],the impurities increased
"NCc1c[nH]c(=S)n1[C@H]1CCc2c(F)cc(F)cc2C1 [free base of nepicastat, Nepicastat]",approximate solubility (qualitative),"[5]; in dichloromethane:methanol (1:1, V:V), methanol, acetone and ethanol",higher solubility
same,solubility,"[5]; organic solvent or mixture, solvent 2-Methyltetrahydrofuran",< 1000 µg/mL
same,solubility,"[5]; organic solvent or mixture, solvent Acetone",4000 to 5000 µg/mL
same,solubility,"[5]; organic solvent or mixture, solvent Dichloromethane",< 1000 µg/mL
same,solubility,"[5]; organic solvent or mixture, solvent Dichloromethane:methanol (1:1)",19700 to 39300 µg/mL
same,solubility,"[5]; organic solvent or mixture, solvent Ethanol",2900 to 3400 µg/mL
same,solubility,"[5]; organic solvent or mixture, solvent Ethyl acetate",< 1000 µg/mL
same,solubility,"[5]; organic solvent or mixture, solvent Methanol",6900 to 10300 µg/mL
same,solubility,"[5]; organic solvent or mixture, solvent Methyl tert-butyl ether",< 1000 µg/mL
same,solubility,"[5]; organic solvent or mixture, solvent N-heptane",< 1000 µg/mL
same,solubility,[5]; solvent Purified water,< 1000 µg/mL
Cl.NCc1c[nH]c(=S)n1[C@H]1CCc2c(F)cc(F)cc2C1 [hydrochloride salt of nepicastat],solubility in purified water,[6],7400 µg/mL
maleate salt of nepicastat [crystal form I of maleate salt],stability under accelerated conditions,[1],stable
same,stability under high temperature conditions,[1],stable
same,Approximate solubility,"[7]; in purified water, at room temperature, calculated by the salt",1.8~3.6 mg/mL
same,solubility in purified water compared with other candidate salt forms,"[7]; purified water, room temperature",slightly higher than that of other candidate salt forms

# Source: patent US20260062388A1, “POLYMORPHIC FORM OF NEPICASTAT ACID ADDITION SALT, PREPARATION METHOD THEREFOR AND USE THEREOF” (Jiangsu Yahong Meditech Co., Ltd., priority 2022, published 2026)
